Laboratory results taken from patent publication US20250177324A1, “A[…], AND PREPARATION METHOD THEREFOR AND USE THEREOF” (SHANGHAI ZHIGEN PHARMACEUTICAL & TECHNOLOGY CO. LTD., priority 2022, published 2025).
Where two headings read alike, the source gives them in different places.

Tests used:
C57 mice [1] = test: Forced swim test of oral administration in mice (antidepressant activity); type: in vivo; conditions: Mus musculus, po, reduction of immobility time vs blank group, single gavage 20 mg/kg
Experimental: To investigate the effects of different compounds on depression-like behavior in C57 mice by single oral administration of 20 mg/kg for 1 h and 24 h followed by forced swimming experiment, respectively.
The experimental animals were 6-week-old C57 mice, male, C57 breed mice purchased from Shanghai Slaughter Laboratory Animal Co. Ltd, weighing 20.45±0.19 g. The animals arrived at the Animal Breeding Center of the Shanghai Institute of Pharmaceutical Sciences, Chinese Academy of Sciences (Animal Production License: SCXK9[Shanghai]2004-0002, Use License: SYXK [Shanghai]2003-0029) before the experiments and were acclimated to the animal facilities for more than 3 days, 6 animals/cage were feed. The feeding environment was room temperature 23±0.2° C. and 12/12 h day/night alternating light and dark. Prior to behavioral testing, animals were moved to the behavioral testing room 2 hours in advance to acclimatize them to the environment and reduce their nervousness.
Preparation of the test material: the test compounds were weighed and dissolved in 0.9% NaCl solution, mixed well, and prepared into 1 mg/ml and 2 mg/ml solution for use, respectively.
24 h prior to drug administration, mice were placed in a cylindrical tank to acclimatize to the water environment for 10 min. On the day of the behavioral test, the animals were administered the drug once, by gavage/intraperitoneal injection at 1 h and 24 h prior to the behavioral test, respectively (as shown in Table 1).
The antidepressant effect of the compounds was evaluated by their ability to cause a reduction in the immobility time of the animals in the forced swim test compared to the blank group.

[2] = Brain tissue distribution study in rats; type: in vivo; conditions: SD rats, 10 mg/kg gavage
Experimental: Healthy male SD rats, randomly grouped with 3 rats in each group, were given the test compounds by gavage.
(§1) Each test compound was dissolved in saline to form a certain concentration solution for administration.
Fasting but not abstaining from water for 12-14 hours on the day before administration, and food was given 4 h after administration.
Brain tissues were collected after the animals were bled, cleaned, and homogenized with 50% ice methanol 1:4 (m/v). The collection time points were 5 min, 10 min, 30 min, and 2 h after the administration of subjects; 30.0 μL of tissue samples were taken (the samples were taken from the refrigerator at −80° C. and vortexed for 30 s after natural dissolution at room temperature) into 1.5 mL centrifugal tubes, and 300.0 μL of the internal standard solution (30 ng/mL buspirone in acetonitrile) was added; the samples were vortexed for 60 s, and centrifuged for 3 min (the centrifugal force was 12,000 rpm). 75 μL of the supernatant was transferred to a 96-well plate containing an equal volume of water, shaken to mix well and then sampled for LC-MS/MS analysis, the sample volume is 10 μL.

[3] = Solid-state chemical stability under different storage conditions (liquid chromatography); type: physicochemical; conditions: 40° C., 75% RH
Experimental: The HPLC conditions were as follows:
Configuration of test solution: appropriate amount of sample was dissolved and diluted with a diluent (0.03 mol/L phosphate buffer-acetonitrile (80:20)) to make 1 mg/mL solution.
Chromatographic conditions: according to the high performance liquid chromatography (Chinese Pharmacopoeia 2020 version of the four general 0512) test, using octadecyl-bonded silica gel (Agilent Eclipse Plus C18, 4.6 mm*250 mm, 5.0 μm, P/N for 959990-902 or a chromatographic column with equivalent performance) as a filler; 0.03 mol/L phosphate buffer (4.08 g of potassium dihydrogen phosphate was dissolved in 1000 ml of water and shaken well) was used as mobile phase A and acetonitrile as mobile phase B at a flow rate of 1 ml/min, the column temperature was 30° C., the detection wavelength was 220 nm, the injection volume was 10 ul, and the sample plate was controlled to 8° C. and running for 65 min. Gradient elution was performed according to the following table: […]
Configuration of test solution: appropriate amount of the product was dissolved and diluted with a diluent (0.1% phosphoric acid-acetonitrile (80:20)) to make 1 mg/mL solution.
Chromatographic conditions: according to the high performance liquid chromatography (Chinese Pharmacopoeia 2020 version of the four general 0512) test, using octadecyl bonded silica gel (Agilent Eclipse Plus C18, 4.6 mm*250 mm, 5.0 μm, P/N 959990-902 or a chromatographic column with equivalent performance) as a filler; 0.1% phosphate buffer (1 ml of phosphoric acid in 1000 ml of water and shake well) as mobile phase A, acetonitrile as mobile phase B, flow rate of 1 ml/min, column temperature of 30° C., detection wavelength of 220 nm, injection volume of 10 ul, running for 48 minutes. Gradient elution was performed according to the following table: […]

[4] = In vivo pharmacokinetic experiments in beagle dogs; conditions: beagle dog
Experimental: Healthy male beagle dogs, randomly grouped with 3 dogs in each group, were given the test compound by gavage or intravenous injection.
as §1
Fasting but not abstaining from water for 12-14 hours on the day before administration, and food was given 4 h after administration; no fasting was done for the intravenous experiments.
Each animal was sampled with 0.6 mL of blood each time through the jugular vein and anticoagulated with EDTAK2. The collection time points were 5 min, 10 min, 15 min, 30 min, 1 h, 2 h, 4 h, 6 h, 8 h, and 24 h after administration of the subject in group PO; group IV: 2 min, 5 min, 15 min, 30 min, 1 h, 2 h, 4 h, 6 h, 24 h after administration of the subject. Blood samples were placed on ice after collection and centrifuged to separate plasma within 30 min (centrifugation conditions: 5000 rpm, 10 min, 4° C.). The samples were stored at −80° C. before analysis.

C57 mice [5] = test: Forced swim test of oral administration in mice (antidepressant activity); type: in vivo; conditions: Mus musculus, reduction of immobility time vs blank group, abdominal injection 10 mg/kg
[6] = test 1 h after dosing, read-out: 1 h inhibition (%)
[7] = test 24 h after dosing, read-out: 24 h inhibition (%)

CN[C@@]1(c2ccc(C(F)(F)F)cc2)CCC[C@](C)(O)C1=O.Cl [Compound 73, (2S,6R)-2-hydroxy-2-methyl-6-methylamino-6-(4-(trifluoromethyl)phenyl)cyclohexan-1-one hydrochloride]
inhibition in vivo at 20 mg/kg (C57 mice [1]; [6]): 68.7 ± 0.6% | inhibition in vivo at 20 mg/kg (C57 mice [1]; [7]): 39.4 ± 4.4% | AUC0-t brain ([2]; brain): 6172 ng·h/g | Cmax brain ([2]; brain): 5567 ng/g | Kp ([2]; male, rat, brain and plasma, po, read-out: brain/plasma ratio): 3.4 | AUC0-t ([2]; male, rat, po, plasma): 1820 ng·h/mL | Cmax ([2]; male, rat, po, plasma): 1600 ng/mL | Stability of solid state compound, 0 Days (%) ([3]; 0 days, liquid chromatography): 99.94% | Stability of solid state compound, 5 Days (%) ([3]; 5 days): 99.90% | Stability of solid state compound, 10 Days (%) ([3]; 10 days): 99.88% | Stability of solid state compound, 30 Days (%) ([3]; 30 days): 99.89% | AUC0-t ([4]; 1 mg/kg i.v.): 941 ngh/mL | AUC0-∞ ([4]; 1 mg/kg i.v.): 970 ngh/mL | AUC0-t ([4]; 5 mg/kg P.O.): 2179 ngh/mL | AUC0-∞ ([4]; 5 mg/kg P.O.): 2224 ngh/mL | F ([4]; 5 mg/kg P.O.): 46.3% | MRT ([4]; male, plasma, iv, 1 mg/kg i.v.): 1.84 h | clearance ([4]; male, plasma, iv, 1 mg/kg i.v.): 17.7 mL/min/kg | half-life ([4]; male, plasma, iv, 1 mg/kg i.v.): 1.61 h | Vd ([4]; male, plasma, iv, 1 mg/kg i.v., read-out: Vss): 1.93 L/kg | Cmax ([4]; male, plasma, po, 5 mg/kg P.O.): 1020 ng/mL | MRT ([4]; male, plasma, po, 5 mg/kg P.O.): 2.57 h | Tmax ([4]; male, plasma, po, 5 mg/kg P.O.): 0.42 h | half-life ([4]; male, plasma, po, 5 mg/kg P.O.): 2.33 h

CN[C@]1(c2ccccc2Cl)CCCCC1=O [S-ketamine]
inhibition in vivo at 10 mg/kg (C57 mice [5]; [6]): 20.7 ± 3.7% | inhibition in vivo at 10 mg/kg (C57 mice [5]; [7]): 23.6 ± 1%
